Measurements published in patent US9226982B2, “Gall bladder imaging agent and its preparation method” (INSTITUTE OF NUCLEAR ENERGY RESEARCH ATOMIC ENERGY COUNCIL, …, priority 2012, dated 2016).
Blank lines part the entries; values can stand above or below the molecule they belong to.

How the values were obtained:
[1] = in vivo
From the text: Tyrosine-glutamyl-glutamic acid (YEE) and tyrosine-aspartyl-aspartic acid (YDD) are first proposed by Lee et al. (1983). Tyrosine-glutamyl-glutamyl-glutamic acid (YEEE) is an improved invention by Chen et al. (ROC Patent TW1240002, 2000). The binding force between double-chain galactose amino peptide proposed by Lee et al. in 1983 and a liver cell is 1000 times as large as that of single-chain galactose amino peptide. The binding force between triple-chain galactose amino peptide and a liver cell is 10^6 times as large as that of sing-chain galactose amino peptide. Our laboratory has synthesized DTPA-hexa-lactose with a single lysine derivative earlier, which has very high specific radioactivity with the In-111 label and has a very desirable effect of accumulation at the liver in animal experiments. However, our animal experiments have shown that In-111-DTPA-hexa-lactose stays at the liver very stably for at least half an hour, and it is actually not easy to observe changes of absorption of the gall bladder in the entire imaging process. Therefore, In-111-DTPA-hexa-lactose is suitable for use in remaining liver function test or measurement of remaining liver after liver resection, but is not very suitable for use as a gall bladder imaging agent.

ASGPR = target: T1, ASGPR (Mus musculus, UniProt P24721+P34927); assay: Binding strength between carbohydrate chain peptide and mice liver cell (competition with Eu-ASOR, time-resolved fluorescence)
T1 construct: host or cells: mouse liver cells (hepatocytes) cultured on 24-well plates
T1 sequence (P34927 1-284): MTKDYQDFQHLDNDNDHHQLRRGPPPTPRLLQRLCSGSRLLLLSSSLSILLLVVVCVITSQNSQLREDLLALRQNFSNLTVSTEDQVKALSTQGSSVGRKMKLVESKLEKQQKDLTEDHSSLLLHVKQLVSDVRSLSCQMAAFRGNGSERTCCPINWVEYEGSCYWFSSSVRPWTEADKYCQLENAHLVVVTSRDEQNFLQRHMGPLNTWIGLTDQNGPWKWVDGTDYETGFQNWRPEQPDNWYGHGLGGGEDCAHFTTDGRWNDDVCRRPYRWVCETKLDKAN
T1 sequence (P24721 1-301): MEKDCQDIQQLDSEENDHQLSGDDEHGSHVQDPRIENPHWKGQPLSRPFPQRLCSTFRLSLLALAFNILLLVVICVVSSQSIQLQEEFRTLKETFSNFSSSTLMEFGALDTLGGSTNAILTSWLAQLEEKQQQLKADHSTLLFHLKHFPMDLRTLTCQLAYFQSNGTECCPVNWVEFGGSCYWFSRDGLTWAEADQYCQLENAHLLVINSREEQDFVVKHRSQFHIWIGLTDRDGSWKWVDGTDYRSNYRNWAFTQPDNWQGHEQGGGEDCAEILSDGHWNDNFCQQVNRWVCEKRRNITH
From the text: The binding strength between carbohydrate chain peptide and a mice liver cell uses Eu-asialo-orosomucoid (Eu-ASOR) as a reference substance and compares whether carbohydrate chain peptides such as DCM-Lys(ah-GalNAc)3, […] larger binding capacity to a mice liver cell than Eu-ASOR. IC50 (50% inhibitory concentration) represents the binding capacity. Smaller IC50 represents larger binding capacity. Mice liver cells are purchased from Lonza biotechnology company in State of Maryland, which are placed and cultivated on a 24-well plate in advance. Reaction takes place at each well. […] Perform oscillating culture for 1 hours. Use an ammonium-chloride-containing liver cell base culture medium to wash away substances that are not bonded to liver cells. Perform time-resolved fluorescence analysis, namely, add an enhancer (15 μM of β-naphthoyl trifluoroacetone, 50 μM of tri-n-octyl-phosphine oxide, 0.1M of potassium hydrogen phthalate, and 0.1% of Triton X-100 in 0.1M of acetic acid, pH of 3.2). The enhancer forms an Eu chelate with Eu^3+ and emits light of 615 nm when energized by 340 nm. The logarithmic value of the concentration of carbohydrate chain peptide is taken as X-axis, and the emitted fluorescence value is taken as the Y-axis. […] However, the binding between DCM-Lys(Gah-GalNAc)3 and ASGPR is 10 times as large as the binding strength of YEE and YDD.

Structure (SMILES): O=C(O)CN(CCN(CC(=O)O)CC(=O)O)CCN(CC(=O)O)CC(=O)NCCCCCC(=O)N[C@@H](CC(=O)NCCCC[C@@H](C(=O)NCCCCCCO[C@@H]1O[C@H](CO)[C@@H](O[C@@H]2O[C@H](CO)[C@H](O)[C@H](O)[C@H]2O)[C@H](O)[C@H]1O)N(CC(=O)NCCCCCCO[C@@H]1O[C@H](CO)[C@@H](O[C@@H]2O[C@H](CO)[C@H](O)[C@H](O)[C@H]2O)[C@H](O)[C@H]1O)CC(=O)NCCCCCCO[C@@H]1O[C@H](CO)[C@@H](O[C@@H]2O[C@H](CO)[C@H](O)[C@H](O)[C@H]2O)[C@H](O)[C@H]1O)C(=O)NCCCC[C@@H](C(=O)NCCCCCCO[C@@H]1O[C@H](CO)[C@@H](O[C@@H]2O[C@H](CO)[C@H](O)[C@H](O)[C@H]2O)[C@H](O)[C@H]1O)N(CC(=O)NCCCCCCO[C@@H]1O[C@H](CO)[C@@H](O[C@@H]2O[C@H](CO)[C@H](O)[C@H](O)[C@H]2O)[C@H](O)[C@H]1O)CC(=O)NCCCCCCO[C@@H]1O[C@H](CO)[C@@H](O[C@@H]2O[C@H](CO)[C@H](O)[C@H](O)[C@H]2O)[C@H](O)[C@H]1O [In-111-DTPA-hexa-lactose, metal not drawn]
time it stays at the liver very stably [1]: at least half an hour

binding strength to ASGPR compared with YEE and YDD (in words) (ASGPR; compared with YEE and YDD): same binding strength as YEE and YDD
Structure (SMILES): NCCCCCC(=O)N[C@@H](CC(=O)NCCCC[C@@H](C(=O)NCCCCCCO[C@@H]1O[C@H](CO)[C@@H](O[C@@H]2O[C@H](CO)[C@H](O)[C@H](O)[C@H]2O)[C@H](O)[C@H]1O)N(CC(=O)NCCCCCCO[C@@H]1O[C@H](CO)[C@@H](O[C@@H]2O[C@H](CO)[C@H](O)[C@H](O)[C@H]2O)[C@H](O)[C@H]1O)CC(=O)NCCCCCCO[C@@H]1O[C@H](CO)[C@@H](O[C@@H]2O[C@H](CO)[C@H](O)[C@H](O)[C@H]2O)[C@H](O)[C@H]1O)C(=O)NCCCC[C@@H](C(=O)NCCCCCCO[C@@H]1O[C@H](CO)[C@@H](O[C@@H]2O[C@H](CO)[C@H](O)[C@H](O)[C@H]2O)[C@H](O)[C@H]1O)N(CC(=O)NCCCCCCO[C@@H]1O[C@H](CO)[C@@H](O[C@@H]2O[C@H](CO)[C@H](O)[C@H](O)[C@H]2O)[C@H](O)[C@H]1O)CC(=O)NCCCCCCO[C@@H]1O[C@H](CO)[C@@H](O[C@@H]2O[C@H](CO)[C@H](O)[C@H](O)[C@H]2O)[C@H](O)[C@H]1O [AHA-Asp[DCM-Lys(ahLac)3]2]

Structure (SMILES): CC(=O)N[C@H]1[C@H](OCCCCCCNC(=O)CNC(=O)CN(CC(=O)NCC(=O)NCCCCCCO[C@@H]2O[C@H](CO)[C@H](O)[C@H](O)[C@H]2NC(C)=O)[C@@H](CCCCN)C(=O)NCC(=O)NCCCCCCO[C@@H]2O[C@H](CO)[C@H](O)[C@H](O)[C@H]2NC(C)=O)O[C@H](CO)[C@H](O)[C@@H]1O [DCM-Lys(GahGalNAc)3]
binding strength to ASGPR relative to YEE and YDD (ASGPR; compared with YEE and YDD): 10 times
IC50 (ASGPR; mice liver cells, 10 nM Eu-ASOR as reference substance, 1 hour culture): 1 nM
